This is an account of results in US10421774B2 (priority 2016, dated 2019).

Common to all, as to assay: microbe, parasite or virus in culture
Common to all, as to assay type: cell-based, HIV-1

Experiment [1] deals with A364V site directed mutant virus. To be noted: Human immunodeficiency virus 1, MT2, read-out: A364V EC50. As to the method: (§1) Cells. MT-2 cells and 293T cells were obtained from the NIH AIDS Research and Reference Reagent Program. Cell lines were sub-cultured twice a week in either RPMI 1640 (MT-2) or DMEM (293T, HeLa) media supplemented with 10% heat inactivated fetal bovine serum (FBS), 100 units/mL of penicillin G and 100 μg/mL of streptomycin. The DMEM medium was additionally supplemented with 10 mM HEPES buffer, pH 7.55, 2 mM L-glutamine and 0.25 μg/mL of amphotericin B.
(§2) Viruses. NLRepRluc virus contains the Renilla luciferase marker in place of the viral nef gene. The proviral plasmid pNLRepRluc was constructed at Bristol-Myers Squibb, starting from a proviral NL4-3 clone (B subtype) that was obtained from the NIH AIDS Research and Reference Reagent Program. The parental recombinant wild type (WT) virus (NLRepRlucP373S) was derived from NLRepRluc and contains the additional substitution of P373 for serine in Gag (within the SP1 spacer), the most common 373 variation in subtype B. Other recombinant viruses (A364V, V370A/ΔT371 and the “T3325 triple” (T332S/V362I+HIV-1 protease R41G)) were generated by site-directed mutagenesis of plasmid pNLRepRlucP373S to introduce those amino acid substitutions in Gag and protease. Recombinant virus DNA was then used to generate virus stocks by transfection of 293T cells (Lipofectamine PLUS kit, Invitrogen). Titers of virus stocks were determined using a luciferase assay (Dual-Luciferase® Reporter Assay System, Promega, Milwaukee, Wis., USA) endpoint.
(§3) Multiple cycle drug susceptibility assay. Pellets of MT-2 cells were infected with NLRepRlucP373S Gag site-directed viruses, where initial inocula of the reporter strains were normalized using equivalent endpoint luciferase activity signals. Such cell-virus mixtures were resuspended in medium, incubated for 1-hour at 37° C./CO2, and added to compound containing 96-well plates at a final cell density of 10,000 cells per well. The test compounds were 3-fold serially diluted in 100% DMSO, and assayed at a final DMSO concentration of 1%. After 4-5 day incubation at 37° C./CO2, virus yields were determined by Renilla luciferase activity (Dual-Luciferase® Reporter Assay System, Promega). The endpoint luminescence was detected on a Wallac Trilux (PerkinElmer).
(§4) HIV-1 NL4-3 expressing Renilla luciferase gene was converted to the gag V370A/ΔT371 virus by site directed mutagenesis. A364V is a site directed mutant.
(§5) All three recombinant viruses were used as described above in the HIV cell culture assay for the NL4-3 virus.

For another experiment, the system named is gag V370A/ΔT371 virus. Particulars: Human immunodeficiency virus 1, MT2, read-out: V370A/ΔT371 EC50. As to the method: as §1, §2, §3, §4, §5
The test system of experiment [2] is NLRepRlucP373S recombinant wild type (WT) virus. To be noted: Human immunodeficiency virus 1, MT2, read-out: WT EC50. As to the method:
as §1, §2, §3
The 50% inhibitory concentrations (EC50S) were calculated by using the exponential form of the median effect equation where Percent Inhibition=1/[1+(EC50/drug conc.^m], where m is a parameter that reflects the slope of the concentration-response curve. Background was taken as the residual signal observed upon inhibition at the highest concentration of a control protease inhibitor, NFV (3 μM).
The 90% inhibitory concentrations (EC90S) were calculated by using the exponential form of the median effect equation where ECF=[(F/(100−F)]^1/H·EC50, where H is a parameter that reflects the slope of the concentration-response curve. Background was taken as the residual signal observed upon inhibition at the highest concentration of a control protease inhibitor, NFV (3 μM).

The subject of experiment [3] is T332S/V362I/Pr R41G virus. Particulars: Human immunodeficiency virus 1, MT2, read-out: T332S/V362I/pr41G EC50. As to the method:
as §1, §2, §3
T332sN362I/Pr R41G (N14.3, B Clade) virus′ was obtained as follows: Selection for resistance of HIV-1 strain […] virus with the HIV maturation inhibitor (MI) compound
At passage 8 virus was harvested and sequenced.
as §5

As to `C=C(C)[C@@H]1CC[C@]2(NCCN3CCS(=O)(=O)CC3)CC[C@]3(C)[C@H](CC[C@@H]4[C@@]5(C)CC=C(C6=CCC(COc7ccccn7)(C(=O)O)CC6)C(C)(C)[C@@H]5CC[C@]43C)[C@@H]12` (stereo partly drawn) [Example 1], the EC50 in experiment [1] amounted to 0.011 µM; in the experiment on gag V370A/ΔT371 virus, 0.017 µM; in experiment [2] it was 0.003 µM; in experiment [3] it was 0.014 µM.
Take `C=C(C)[C@@H]1CC[C@]2(NCCN3CCS(=O)(=O)CC3)CC[C@]3(C)[C@H](CC[C@@H]4[C@@]5(C)CC=C(C6=CCC(COc7cc(-c8ccccc8)nn7C)(C(=O)O)CC6)C(C)(C)[C@@H]5CC[C@]43C)[C@@H]12` (stereo partly drawn) [Example 2, 4-((1R,3aS,5aR,5bR,7aR,11aS,11bR,13aR,13bR)-3a-((2-(1,1-dioxidothiomorpholino)ethyl)amino)-5a,5b,8,8,11a-pentamethyl-1-(prop-1-en-2-yl)-2,3,3a,4,5,5a,5b,6,7,7a,8,11,11a,11b,12,13,13a,13b-octadecahydro-1H-cyclopenta[a]chrysen-9-yl)-1-(((1-methyl-3-phenyl-1H-pyrazol-5-yl)oxy)methyl)cyclohex-3-ene-1-carboxylic acid]: the figures for the EC50 in experiment [1], in experiment [2] and in experiment [3] were 1.94 µM, 3 µM and 3 µM, respectively.
As to `C=C(C)[C@@H]1CC[C@]2(NCCN3CCS(=O)(=O)CC3)CC[C@]3(C)[C@H](CC[C@@H]4[C@@]5(C)CC=C(C6=CCC(COc7cc(C(F)(F)F)n(C)n7)(C(=O)O)CC6)C(C)(C)[C@@H]5CC[C@]43C)[C@@H]12` (stereo partly drawn) [Example 3], the EC50 in experiment [1] was 2.22 µM; in experiment [2], 0.009 µM; in experiment [3], 2.17 µM.
For the compound `C=C(C)[C@@H]1CC[C@]2(NCCN3CCS(=O)(=O)CC3)CC[C@]3(C)[C@H](CC[C@@H]4[C@@]5(C)CC=C(C6=CCC(COc7nc(C(=O)O)cs7)(C(=O)O)CC6)C(C)(C)[C@@H]5CC[C@]43C)[C@@H]12` (stereo partly drawn) [Example 4, 2-((1-carboxy-4-((1R,3aS,5aR,5bR,7aR,11aS,11bR,13aR,13bR)-3a-((2-(1,1-dioxidothiomorpholino)ethyl)amino)-5a,5b,8,8,11a-pentamethyl-1-(prop-1-en-2-yl)-2,3,3a,4,5,5a,5b,6,7,7a,8,11,11a,11b,12,13,13a,13b-octadecahydro-1H-cyclopentatalchrysen-9-yl)cyclohex-3-en-1-yl)methoxy)thiazole-4-carboxylic acid], the EC50 (in experiment [1]; in the experiment on gag V370A/ΔT371 virus; in experiment [2]; in experiment [3]) was more than 0.05 µM each time.
With `C=C(C)[C@@H]1CC[C@]2(NCCN3CCS(=O)(=O)CC3)CC[C@]3(C)[C@H](CC[C@@H]4[C@@]5(C)CC=C(C6=CCC(COc7nsnc7C)(C(=O)O)CC6)C(C)(C)[C@@H]5CC[C@]43C)[C@@H]12` (stereo partly drawn) [Example 5, 4-((1R,3aS,5aR,5bR,7aR,11aS,11bR,13aR,13bR)-3a-((2-(1,1-dioxidothiomorpholino)ethyl)amino)-5a,5b,8,8,11a-pentamethyl-1-(prop-1-en-2-yl)-2,3,3a,4,5,5a,5b,6,7,7a,8,11,11a,11b,12,13,13a,13b-octadecahydro-1H-cyclopenta[a]chrysen-9-yl)-1-(((4-methyl-1,2,5-thiadiazol-3-yl)oxy)methyl)cyclohex-3-ene-1-carboxylic acid], the EC50 was determined as 0.015 µM in experiment [1], 0.015 µM in the experiment on gag V370A/ΔT371 virus, 0.003 µM in experiment [2] and 0.015 µM in experiment [3].
Regarding `C=C(C)[C@@H]1CC[C@]2(NCCN3CCS(=O)(=O)CC3)CC[C@]3(C)[C@H](CC[C@@H]4[C@@]5(C)CC=C(C6=CCC(COc7cnsn7)(C(=O)O)CC6)C(C)(C)[C@@H]5CC[C@]43C)[C@@H]12` (stereo partly drawn) [Example 6, 1-(((1,2,5-thiadiazol-3-yl)oxy)methyl)-4-((1R,3aS,5aR,5bR,7aR,11aS,11bR,13aR,13bR)-3a-((2-(1,1-dioxidothiomorpholino)ethyl)amino)-5a,5b,8,8,11a-pentamethyl-1-(prop-1-en-2-yl)-2,3,3a,4,5,5a,5b,6,7,7a,8,11,11a,11b,12,13,13a,13b-octadecahydro-1H-cyclopenta[a]chrysen-9-yl)cyclohex-3-ene-1-carboxylic acid], the EC50 is more than 0.05 µM in experiment [1], less than 0.05 µM in the experiment on gag V370A/ΔT371 virus, less than 0.05 µM in experiment [2] and less than 0.05 µM in experiment [3].
For the compound `C=C(C)[C@@H]1CC[C@]2(NCCN3CCS(=O)(=O)CC3)CC[C@]3(C)[C@H](CC[C@@H]4[C@@]5(C)CC=C(C6=CCC(COc7cnnn7CC)(C(=O)O)CC6)C(C)(C)[C@@H]5CC[C@]43C)[C@@H]12` (stereo partly drawn) [Example 7], the EC50 in experiment [1] is 0.095 µM; in the experiment with gag V370A/ΔT371 virus it was 0.192 µM; in experiment [2] it was 0.002 µM; in experiment [3] it was 0.192 µM.
In the case of `C=C(C)[C@@H]1CC[C@]2(NCCN3CCS(=O)(=O)CC3)CC[C@]3(C)[C@H](CC[C@@H]4[C@@]5(C)CC=C(C6=CCC(COc7nsc8ccccc78)(C(=O)O)CC6)C(C)(C)[C@@H]5CC[C@]43C)[C@@H]12` (stereo partly drawn) [Example 8], the EC50 (in experiment [1]; in the experiment with gag V370A/ΔT371 virus; in experiment [2]; in experiment [3]) was less than 0.05 µM throughout.
With `C=C(C)[C@@H]1CC[C@]2(NCCN3CCS(=O)(=O)CC3)CC[C@]3(C)[C@H](CC[C@@H]4[C@@]5(C)CC=C(C6=CCC(COc7ccncc7)(C(=O)O)CC6)C(C)(C)[C@@H]5CC[C@]43C)[C@@H]12` (stereo partly drawn) [Example 9, 4-((1R,3aS,5aR,5bR,7aR,11aS,11bR,13aR,13bR)-3a-((2-(1,1-dioxidothiomorpholino)ethyl)amino)-5a,5b,8,8,11a-pentamethyl-1-(prop-1-en-2-yl)-2,3,3a,4,5,5a,5b,6,7,7a,8,11,11a,11b,12,13,13a,13b-octadecahydro-1H-cyclopenta[a]chrysen-9-yl)-1-((pyridin-4-yloxy)methyl)cyclohex-3-ene-1-carboxylic acid], the EC50 in experiment [1] came to 0.035 µM; in experiment [2], 0.002 µM; in experiment [3], 0.014 µM.
For `C=C(C)[C@@H]1CC[C@]2(NCCN3CCS(=O)(=O)CC3)CC[C@]3(C)[C@H](CC[C@@H]4[C@@]5(C)CC=C(C6=CCC(COc7cccnc7)(C(=O)O)CC6)C(C)(C)[C@@H]5CC[C@]43C)[C@@H]12` (stereo partly drawn) [Example 10, 4-((1R,3aS,5aR,5bR,7aR,11aS,11bR,13aR,13bR)-3a-((2-(1,1-dioxidothiomorpholino)ethyl)amino)-5a,5b,8,8,11a-pentamethyl-1-(prop-1-en-2-yl)-2,3,3a,4,5,5a,5b,6,7,7a,8,11,11a,11b,12,13,13a,13b-octadecahydro-1H-cyclopenta[a]chrysen-9-yl)-1-((pyridin-3-yloxy)methyl)cyclohex-3-enecarboxylic acid], the EC50 in experiment [1] was 0.027 µM; in experiment [2], 0.002 µM; in experiment [3], 0.006 µM.
On the same counts, the results for `C=C(C)[C@@H]1CC[C@]2(NCCN3CCC(S(C)(=O)=O)CC3)CC[C@]3(C)[C@H](CC[C@@H]4[C@@]5(C)CC=C(C6=CCC(COc7cccnc7)(C(=O)O)CC6)C(C)(C)[C@@H]5CC[C@]43C)[C@@H]12` (stereo partly drawn) [Example 11, 4-((1R,3aS,5aR,5bR,7aR,11aS,11bR,13aR,13bR)-5a,5b,8,8,11a-pentamethyl-3a-((2-(4-(methylsulfonyl)piperidin-1-yl)ethyl)amino)-1-(prop-1-en-2-yl)-2,3,3a,4,5,5a,5b,6,7,7a,8,11,11a,11b,12,13,13a,13b-octadecahydro-1H-cyclopenta[a]chrysen-9-yl)-1-((pyridin-3-yloxy)methyl)cyclohex-3-enecarboxylic acid] are 0.018 µM, 0.002 µM and 0.008 µM.
